Data reported in patent publication US4396543A.
≈ marks a conversion by molar mass, not a printed value. Where “and” joins values, the source holds several entries; their conditions need not be identical. Identical values can stand only once.

Assays:
[1] = system: Staphylococcus epidermidis EPI2; experiment: agar-dilution MIC; assay type: cell-based; conditions: two values = two experiments, 2 median of five, 19 median of three
Streptococcus pyogenes = experiment: in vivo experimental bacterial infection, ED50; conditions: mice; for ED50 Values Streptococcus pyogenes Oral: two doses orally; for ED50 Values Streptococcus pyogenes Subcutaneous: two doses subcutaneously, two values = two experiments
toxicity test, LD50 = conditions: mouse, in vivo, iv; administered intravenously; read-out: LD50 (mg/kg) in Mice
[2] = system: Staphylococcus aureus V41; experiment: agar-dilution MIC; assay type: cell-based; conditions: Staphylococcus aureus V41, penicillin-resistant strain; two values = two experiments; 2 median of five, 19 median of three
Description: (§1) In Table VII activity is measured by the minimal inhibitory concentration (MIC), i.e. the lowest concentration of compound at which growth of the microorganism is inhibited by the test compound.

[3] = system: Streptococcus pyogenes C203; experiment: agar-dilution MIC; assay type: cell-based; conditions: two values = two experiments, 2 median of five, 19 median of three
[4] = system: Staphylococcus epidermidis EPI1; assay type: cell-based; conditions: two values = two experiments, 2 median of five, 19 median of three
[5] = system: Streptococcus Group D X66; experiment: agar-dilution MIC; assay type: cell-based; conditions: two values = two experiments, 2 median of five, 19 median of three
Description: as §1

[6] = system: Streptococcus pneumoniae Park I; assay type: cell-based; conditions: two values = two experiments, 2 median of five, 19 median of three
Description: as §1

[7] = system: Streptococcus Group D 9960; experiment: agar-dilution MIC; assay type: cell-based; conditions: two values = two experiments, 2 median of five, 19 median of three
Description: as §1

[8] = system: Staphylococcus aureus X1.1; experiment: agar-dilution MIC; assay type: cell-based; conditions: two values = two experiments, 2 median of five, 19 median of three experiments
Description: as §1

Staphylococcus aureus = experiment: in vivo experimental bacterial infection, ED50; conditions: mice, two doses subcutaneously; two values = two experiments
[9] = system: Staphylococcus aureus X400; experiment: agar-dilution MIC; assay type: cell-based; conditions: Staphylococcus aureus X400, methicillin-resistant strain; two values = two experiments; 2 median of five, 19 median of three
Description: as §1

Compound	MIC [1]	ED50 Values Streptococcus pyogenes Oral (Streptococcus pyogenes)	ED50 Values Streptococcus pyogenes Subcutaneous (Streptococcus pyogenes)	LD50 (toxicity test, LD50)	MIC [2]	MIC [3]	MIC [4]	MIC [5]	MIC [6]	MIC [7]	MIC [8]	ED50 Values Staphylococcus aureus Subcutaneous (Staphylococcus aureus)	MIC [9]
CCCCCCCCCCCC(=O)NCCCCCCCCCCC(=O)N[C@@H](Cc1c[nH]c2ccccc12)C(=O)N[C@H](CC(N)=O)C(=O)N[C@@H](CC(=O)O)C(=O)N[C@@H]1C(=O)NCC(=O)N[C@@H](CCCN)C(=O)N[C@@H](CC(=O)O)C(=O)N[C@H](C)C(=O)N[C@@H](CC(=O)O)C(=O)NCC(=O)N[C@H](CO)C(=O)N[C@@H]([C@H](C)CC(=O)O)C(=O)N[C@@H](CC(=O)c2ccccc2N)C(=O)O[C@@H]1C [Compound 3]	8 µg/mL (≈ 4.37 µM)	> 200 mg/kg × 2	6.2 mg/kg × 2	600 mg/kg	2 µg/mL (≈ 1.09 µM)	2 µg/mL (≈ 1.09 µM)	8 µg/mL (≈ 4.37 µM)	8 µg/mL (≈ 4.37 µM)	0.5 µg/mL (≈ 0.273 µM)	8 µg/mL (≈ 4.37 µM)	2 µg/mL (≈ 1.09 µM)	> 18 mg/kg × 2	8 µg/mL (≈ 4.37 µM)
CCCCCCCCCCCC(=O)Nc1cccc(C(=O)N[C@@H](Cc2c[nH]c3ccccc23)C(=O)N[C@H](CC(N)=O)C(=O)N[C@@H](CC(=O)O)C(=O)N[C@@H]2C(=O)NCC(=O)N[C@@H](CCCN)C(=O)N[C@@H](CC(=O)O)C(=O)N[C@H](C)C(=O)N[C@@H](CC(=O)O)C(=O)NCC(=O)N[C@H](CO)C(=O)N[C@@H]([C@H](C)CC(=O)O)C(=O)N[C@@H](CC(=O)c3ccccc3N)C(=O)O[C@@H]2C)c1 [Compound 5]	1 µg/mL (≈ 0.566 µM)	> 200 mg/kg × 2	> 0.25 mg/kg × 2 and 0.46 mg/kg × 2	277 mg/kg	0.5 µg/mL (≈ 0.283 µM)	0.25 µg/mL (≈ 0.141 µM)	2 µg/mL (≈ 1.13 µM)	4 µg/mL (≈ 2.26 µM)	0.25 µg/mL (≈ 0.141 µM)	1 µg/mL (≈ 0.566 µM)	0.5 µg/mL (≈ 0.283 µM)	1.67 mg/kg × 2	1 µg/mL (≈ 0.566 µM)
CCCCCCCCCCCC(=O)Nc1cc(Cl)cc(C(=O)N[C@@H](Cc2c[nH]c3ccccc23)C(=O)N[C@H](CC(N)=O)C(=O)N[C@@H](CC(=O)O)C(=O)N[C@@H]2C(=O)NCC(=O)N[C@@H](CCCN)C(=O)N[C@@H](CC(=O)O)C(=O)N[C@H](C)C(=O)N[C@@H](CC(=O)O)C(=O)NCC(=O)N[C@H](CO)C(=O)N[C@@H]([C@H](C)CC(=O)O)C(=O)N[C@@H](CC(=O)c3ccccc3N)C(=O)O[C@@H]2C)c1Cl [Compound 7]	2 µg/mL (≈ 1.09 µM)	> 200 mg/kg × 2	0.23 mg/kg × 2	200 mg/kg	1 µg/mL (≈ 0.544 µM)	1 µg/mL (≈ 0.544 µM)	2 µg/mL (≈ 1.09 µM)	2 µg/mL (≈ 1.09 µM)	0.125 µg/mL (≈ 0.0681 µM)	2 µg/mL (≈ 1.09 µM)	0.5 µg/mL (≈ 0.272 µM)	19 mg/kg × 2	2 µg/mL (≈ 1.09 µM)
CCCCCCCCCCCC(=O)N[C@@H](Cc1ccccc1)C(=O)N[C@@H](Cc1c[nH]c2ccccc12)C(=O)N[C@H](CC(N)=O)C(=O)N[C@@H](CC(=O)O)C(=O)N[C@@H]1C(=O)NCC(=O)N[C@@H](CCCN)C(=O)N[C@@H](CC(=O)O)C(=O)N[C@H](C)C(=O)N[C@@H](CC(=O)O)C(=O)NCC(=O)N[C@H](CO)C(=O)N[C@@H]([C@H](C)CC(=O)O)C(=O)N[C@@H](CC(=O)c2ccccc2N)C(=O)O[C@@H]1C [Compound 8]	1 µg/mL (≈ 0.557 µM)	150 mg/kg × 2	0.32 mg/kg × 2	250 mg/kg	0.25 µg/mL (≈ 0.139 µM)	0.25 µg/mL (≈ 0.139 µM)	1 µg/mL (≈ 0.557 µM)	1 µg/mL (≈ 0.557 µM)	0.125 µg/mL (≈ 0.0696 µM)	0.25 µg/mL (≈ 0.139 µM)	0.25 µg/mL (≈ 0.139 µM)	2.35 mg/kg × 2	0.5 µg/mL (≈ 0.278 µM)
CCCCCCC(=O)NCCCCCCCCCCC(=O)N[C@@H](Cc1c[nH]c2ccccc12)C(=O)N[C@H](CC(N)=O)C(=O)N[C@@H](CC(=O)O)C(=O)N[C@@H]1C(=O)NCC(=O)N[C@@H](CCCN)C(=O)N[C@@H](CC(=O)O)C(=O)N[C@H](C)C(=O)N[C@@H](CC(=O)O)C(=O)NCC(=O)N[C@H](CO)C(=O)N[C@@H]([C@H](C)CC(=O)O)C(=O)N[C@@H](CC(=O)c2ccccc2N)C(=O)O[C@@H]1C [Compound 14]	8 µg/mL (≈ 4.54 µM)	> 200 mg/kg × 2	> 9 mg/kg × 2	> 600 mg/kg	4 µg/mL (≈ 2.27 µM)	2 µg/mL (≈ 1.14 µM)	8 µg/mL (≈ 4.54 µM)	> 128 µg/mL	8 µg/mL (≈ 4.54 µM)	64 µg/mL (≈ 36.3 µM)	4 µg/mL (≈ 2.27 µM)	> 18 mg/kg × 2	8 µg/mL (≈ 4.54 µM)
CCCCCCCCCC(=O)N[C@@H](Cc1ccccc1)C(=O)N[C@@H](Cc1c[nH]c2ccccc12)C(=O)N[C@H](CC(N)=O)C(=O)N[C@@H](CC(=O)O)C(=O)N[C@@H]1C(=O)NCC(=O)N[C@@H](CCCN)C(=O)N[C@@H](CC(=O)O)C(=O)N[C@H](C)C(=O)N[C@@H](CC(=O)O)C(=O)NCC(=O)N[C@H](CO)C(=O)N[C@@H]([C@H](C)CC(=O)O)C(=O)N[C@@H](CC(=O)c2ccccc2N)C(=O)O[C@@H]1C [Compound 19, NTrp-[N-(n-Decanoyl)-L-phenylalanyl]-A-21978C Nucleus]	0.5 µg/mL (≈ 0.283 µM)	> 200 mg/kg × 2	0.39 mg/kg × 2	600 mg/kg	0.5 µg/mL (≈ 0.283 µM)	0.25 µg/mL (≈ 0.141 µM)	1 µg/mL (≈ 0.566 µM)	8 µg/mL (≈ 4.53 µM)	0.75 µg/mL (≈ 0.424 µM)	2 µg/mL (≈ 1.13 µM)	0.5 µg/mL (≈ 0.283 µM)	0.7 mg/kg × 2 and 0.98 mg/kg × 2	1 µg/mL (≈ 0.566 µM)
CCCCCCCCCCCC(=O)N[C@@H](Cc1c[nH]c2ccccc12)C(=O)N[C@@H](Cc1c[nH]c2ccccc12)C(=O)N[C@H](CC(N)=O)C(=O)N[C@@H](CC(=O)O)C(=O)N[C@@H]1C(=O)NCC(=O)N[C@@H](CCCN)C(=O)N[C@@H](CC(=O)O)C(=O)N[C@H](C)C(=O)N[C@@H](CC(=O)O)C(=O)NCC(=O)N[C@H](CO)C(=O)N[C@@H]([C@H](C)CC(=O)O)C(=O)N[C@@H](CC(=O)c2ccccc2N)C(=O)O[C@@H]1C [Compound 24]	4 µg/mL (≈ 2.18 µM)	> 200 mg/kg × 2	–	450 mg/kg	2 µg/mL (≈ 1.09 µM)	2 µg/mL (≈ 1.09 µM)	4 µg/mL (≈ 2.18 µM)	16 µg/mL (≈ 8.72 µM)	1 µg/mL (≈ 0.545 µM)	4 µg/mL (≈ 2.18 µM)	1 µg/mL (≈ 0.545 µM)	2.3 mg/kg × 2	4 µg/mL (≈ 2.18 µM)
